Measurements from patent EP0431741A2, “Substituted pyrimidineamino compounds” (Beecham Group p.l.c., priority 1989, dated 1991).

What was measured:
trachea = test: Bronchodilator activity: relaxation of isolated tracheal spirals, relative to isoprenaline maximum; type: cell-based, guinea pigs; settings: result in words; no value given
Method: Male guinea pigs (300-600g) were stunned by a blow to the head and bled from the carotid artery. The trachea was exposed, dissected free of connective tissue, and transferred to oxygenated Krebs solution at 37 °C. Next, spirals (2 per trachea) were prepared by cutting the whole trachea spirally along its longitudinal axis and then dividing this spiral lengthwise. Each preparation was mounted, using silk thread, in a 10ml organ bath filled with Krebs solution at 37 °C and bubbled with 5% CO₂ with O₂. The resting tension of the preparations was set at 2g and changes in muscle tension were monitored isometrically by means of a UFI (2oz) force and displacement transducer (Ormed Ltd) connected to a Linseis pen recorder. All preparations were allowed to equilibrate for 60 minutes. During this equilibration period the preparations were washed by upward displacement at 15 minute intervals and, if necessary, the resting tension was readjusted to 2g using a mechanical micromanipulator system.
Once a steady resting tension had been obtained, the preparations were dosed simultaneously with the test compound (10⁻⁸-2x10⁻⁵M), and finally a maximum relaxation achieved by addition of 10⁻³M isoprenaline. The fall in tension evoked by the test compound was expressed as a percentage of the total relaxation evoked in the presence of 10⁻³ isoprenaline. […]

[1] = tested on: Spontaneously hypertensive rats; test: Antihypertensive activity: systolic blood pressure by tail cuff method; type: in vivo; settings: for active in test 1. (Antihypertensive Activity): result in words, no dose given; for b.p. lower/dose: systolic blood pressure, spontaneously hypertensive rats
Method: Systolic blood pressures were recorded by a modification of the tail cuff method described by I.M. Claxton, M.G. Palfreyman, R.H. Poyser, R.L. Whiting, European Journal of Pharmacology, 37, 179 (1976). A W+W BP recorder, model 8005 was used to display pulses. Prior to all measurements rats were placed in a heated environment (33.5 ± 0.5 °C) before transfer to a restraining cage. Each determination of blood pressure was the mean of at least 5 readings. Spontaneously hypertensive rats (ages 12-18 weeks) with systolic blood pressures >180 mmHg were considered hypertensive.

## CC1(C)Oc2ccc(C#N)cc2[C@@H](Nc2cc(N)ncn2)[C@@H]1O (racemic) [Example 3]
trachea
  active in test 2. (Bronchodilator Activity): active
[1]
  active in test 1. (Antihypertensive Activity): active

## CNc1cc(N[C@@H]2c3cc(C#N)ccc3OC(C)(C)[C@H]2O)ncn1 (racemic) [Example 2]
trachea
  active in test 2. (Bronchodilator Activity): active
[1]
  active in test 1. (Antihypertensive Activity): active

## CC1(C)Oc2ccc(C#N)cc2[C@@H](Nc2cc(Cl)ncn2)[C@@H]1O (racemic) [El, Trans-6-cyano-4-[(6-chloropyrimidin-4-yl)amino]-3,4-dihydro-2,2-dimethyl-2H-1-benzopyran-3-ol]
[1]; dose 0.15mgkg⁻¹
  b.p. lower/dose: 38%/0.15mgkg⁻¹
[1]; dose 0.3mgkg⁻¹
  b.p. lower/dose: 36%/0.3mgkg⁻¹
